US8614327B2 (Vertex Pharmaceuticals Incorporated, priority 2004, dated 2013)

Target: T1, ΔF508-CFTR (Homo sapiens, UniProt P13569, DEL508-508)
T1 construct: expressed in transfected cells
Assay: Membrane potential optical (FRET/VIPR) assay, identification of potentiator compounds
Format: cell-based
Details: Table 3, assay not given; for % Activity: relative efficacy
Outline: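 NIH3T3 mouse fibroblasts stably expressing ΔF508-CFTR, temperature-corrected 24 h at 27° C., read on VIPR by FRET between CC2-DMPE and DiSBAC2(3). Potentiators identified in a double-addition format, first adding chloride-free (gluconate) medium with or without compound.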

T1 sequence (P13569 with tags, fused parts or gaps DEL508-508): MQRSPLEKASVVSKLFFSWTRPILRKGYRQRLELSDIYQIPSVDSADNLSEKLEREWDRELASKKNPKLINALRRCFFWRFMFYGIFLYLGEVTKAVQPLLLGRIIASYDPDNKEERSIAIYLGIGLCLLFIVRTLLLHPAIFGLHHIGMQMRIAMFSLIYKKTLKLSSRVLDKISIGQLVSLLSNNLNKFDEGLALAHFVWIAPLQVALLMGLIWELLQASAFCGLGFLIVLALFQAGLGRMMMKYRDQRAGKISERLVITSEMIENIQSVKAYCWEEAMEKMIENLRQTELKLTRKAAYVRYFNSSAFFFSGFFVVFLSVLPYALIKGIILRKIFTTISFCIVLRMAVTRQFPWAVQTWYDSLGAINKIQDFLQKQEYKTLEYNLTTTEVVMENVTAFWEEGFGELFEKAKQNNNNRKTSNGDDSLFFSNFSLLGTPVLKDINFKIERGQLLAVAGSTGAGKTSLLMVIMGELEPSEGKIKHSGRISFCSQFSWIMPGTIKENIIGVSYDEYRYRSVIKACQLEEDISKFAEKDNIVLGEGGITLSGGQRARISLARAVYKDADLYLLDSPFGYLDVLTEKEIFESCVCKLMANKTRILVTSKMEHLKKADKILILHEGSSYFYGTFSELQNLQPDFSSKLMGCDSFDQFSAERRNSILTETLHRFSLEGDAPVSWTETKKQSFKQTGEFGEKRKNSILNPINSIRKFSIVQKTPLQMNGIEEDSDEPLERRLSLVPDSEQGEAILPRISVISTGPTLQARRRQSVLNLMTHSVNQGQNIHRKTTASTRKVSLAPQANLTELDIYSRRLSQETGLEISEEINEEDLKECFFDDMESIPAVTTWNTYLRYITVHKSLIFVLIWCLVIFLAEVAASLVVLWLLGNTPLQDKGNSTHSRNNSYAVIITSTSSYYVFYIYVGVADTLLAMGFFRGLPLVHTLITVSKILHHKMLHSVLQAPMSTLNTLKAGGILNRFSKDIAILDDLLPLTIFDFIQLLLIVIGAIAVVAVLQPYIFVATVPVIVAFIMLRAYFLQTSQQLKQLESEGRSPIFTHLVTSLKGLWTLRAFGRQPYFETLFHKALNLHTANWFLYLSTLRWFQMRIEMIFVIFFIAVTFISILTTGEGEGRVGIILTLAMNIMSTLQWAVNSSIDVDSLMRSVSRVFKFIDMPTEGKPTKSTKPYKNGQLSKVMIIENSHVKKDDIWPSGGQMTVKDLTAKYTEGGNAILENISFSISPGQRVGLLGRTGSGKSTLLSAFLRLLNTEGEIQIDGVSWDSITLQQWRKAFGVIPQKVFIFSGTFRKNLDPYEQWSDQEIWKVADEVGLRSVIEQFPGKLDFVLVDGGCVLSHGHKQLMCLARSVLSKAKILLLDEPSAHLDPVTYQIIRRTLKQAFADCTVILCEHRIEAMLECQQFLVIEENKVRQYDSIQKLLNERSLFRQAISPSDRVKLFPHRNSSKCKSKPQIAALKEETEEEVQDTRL

SMILES | EC50 [µM] | % Activity
COc1nc2ccccc2c(OC)c1C(=O)Nc1ccccc1-c1ccccc1 [Compound 210, 2,4-dimethoxy-N-(2-phenylphenyl)-quinoline-3-carboxamide] | 10 to 25 | ++ (between 25% to 100%)
Cc1cccc2[nH]cc(C(=O)Nc3ccc(N4CCCC(C)C4)cc3C(F)(F)F)c(=O)c12 (centres unmarked) [Compound 643, 5-methyl-N-[4-(3-methyl-1-piperidyl)-2-(trifluoromethyl)phenyl]-4-oxo-1H-quinoline-3-carboxamide] | < 10 | ++ (between 25% to 100%)
COc1c(C(=O)Nc2ccc(C(C)(C)C)c(O)c2)cnc2ccccc12 [Compound 415, N-(3-Hydroxy-4-tert-butyl-phenyl)-4-methoxy-quinoline-3-carboxamide] | < 10 | ++ (between 25% to 100%)
COc1ccc(-c2ccccc2NC(=O)c2c[nH]c3ccccc3c2=O)c(OC)c1 [Compound 312, N-[2-(2,4-dimethoxyphenyl)phenyl]-4-oxo-1H-quinoline-3-carboxamide] | < 10 | ++ (between 25% to 100%)
COc1ccc(Oc2ccc(C(F)(F)F)cc2NC(=O)c2c[nH]c3ccccc3c2=O)cc1 [Compound 205, N-[2-(4-methoxyphenoxy)-5-(trifluoromethyl)phenyl]-4-oxo-1H-quinoline-3-carboxamide] | < 10 | ++ (between 25% to 100%)
O=C(Nc1cc2[nH]ccc2cc1F)c1c[nH]c2ccc(F)cc2c1=O [Compound 254, 6-fluoro-N-(5-fluoro-1H-indol-6-yl)-4-oxo-1H-quinoline-3-carboxamide] | < 10 | ++ (between 25% to 100%)
CC(C)(C)c1cc(F)c(NC(=O)c2c[nH]c3cccc(F)c3c2=O)cc1O [Compound 610, 5-fluoro-N-(2-fluoro-5-hydroxy-4-tert-butyl-phenyl)-4-oxo-1H-quinoline-3-carboxamide] | < 10 | ++ (between 25% to 100%)
Cc1ccc(C(F)(F)F)cc1NC(=O)c1c[nH]c2ccc(F)cc2c1=O [Compound 678, 6-fluoro-N-[2-methyl-5-(trifluoromethyl)phenyl]-4-oxo-1H-quinoline-3-carboxamide] | < 10 | ++ (between 25% to 100%)
CCOc1ccc2[nH]cc(C(=O)Nc3cc4[nH]ccc4cc3C(C)(C)C)c(=O)c2c1 [Compound 681, 6-ethoxy-4-oxo-N-(5-tert-butyl-1H-indol-6-yl)-1H-quinoline-3-carboxamide] | < 10 | ++ (between 25% to 100%)
CC(C)(C)c1cc(C(C)(C)C)c(NC(=O)c2c[nH]c3cccc(O)c3c2=O)cc1O [Compound 464, 5-hydroxy-N-(5-hydroxy-2,4-ditert-butyl-phenyl)-4-oxo-1H-quinoline-3-carboxamide] | < 10 | ++ (between 25% to 100%)
COc1cccc(OC)c1-c1cc2cc[nH]c2cc1NC(=O)c1c[nH]c2ccccc2c1=O [Compound 404, N-[5-(2,6-dimethoxyphenyl)-1H-indol-6-yl]-4-oxo-1H-quinoline-3-carboxamide] | < 10 | ++ (between 25% to 100%)
CCOc1cccc2c(=O)c(C(=O)Nc3cc4[nH]ccc4cc3C(C)(C)C)c[nH]c12 [Compound 641, 8-ethoxy-4-oxo-N-(5-tert-butyl-1H-indol-6-yl)-1H-quinoline-3-carboxamide] | 10 to 25 | + (<25%)
CCOc1ccccc1-c1ccc(NC(=O)OC(C)(C)C)cc1NC(=O)c1c[nH]c2ccccc2c1=O [Compound 114, [4-(2-ethoxyphenyl)-3-[(4-oxo-1H-quinolin-3-yl)carbonylamino]phenyl]aminoformic acid tert-butyl ester] | < 10 | ++ (between 25% to 100%)
CC(C)(C)c1cc(F)c(NC(=O)c2c[nH]c3cc(F)c(F)cc3c2=O)cc1O [Compound 486, 6,7-difluoro-N-(2-fluoro-5-hydroxy-4-tert-butyl-phenyl)-4-oxo-1H-quinoline-3-carboxamide] | < 10 | ++ (between 25% to 100%)
COc1cc(NC(=O)c2c[nH]c3ccccc3c2=O)c(C(F)(F)F)cc1C(C)(C)C [Compound 421, N-[5-methoxy-4-tert-butyl-2-(trifluoromethyl)phenyl]-4-oxo-1H-quinoline-3-carboxamide] | < 10 | ++ (between 25% to 100%)
COc1ncc(-c2ccccc2NC(=O)c2c[nH]c3ccccc3c2=O)c(OC)n1 [Compound 97, N-[2-(2,4-dimethoxypyrimidin-5-yl)phenyl]-4-oxo-1H-quinoline-3-carboxamide] | < 10 | ++ (between 25% to 100%)
Cc1ccc2c(c1)c(=O)c(C(=O)Nc1ccccc1)cn2C [Compound 394, 1,6-dimethyl-4-oxo-N-phenyl-1H-quinoline-3-carboxamide] | 25 to 60 | + (<25%)

Further lines, results first:

EC50 [µM] | % Activity | SMILES
< 10 | ++ (between 25% to 100%) | CCCc1ccc(NC(=O)c2c[nH]c3ccccc3c2=O)cc1NC(=O)OCC [Compound 382, [5-[(4-oxo-1H-quinolin-3-yl)carbonylamino]-2-propyl-phenyl]aminoformic acid ethyl ester]
< 10 | ++ (between 25% to 100%) | CCC(C)c1ccc(NC(=O)c2c[nH]c3ccccc3c2=O)cc1 (centres unmarked) [Compound 310, 4-oxo-N-(4-sec-butylphenyl)-1H-quinoline-3-carboxamide]
< 10 | ++ (between 25% to 100%) | COc1cc(NC(=O)c2c[nH]c3ccccc3c2=O)cc(C(F)(F)F)c1 [Compound 691, N-[3-methoxy-5-(trifluoromethyl)phenyl]-4-oxo-1H-quinoline-3-carboxamide]
< 10 | ++ (between 25% to 100%) | CCCCCc1ccc(NC(=O)c2c[nH]c3ccccc3c2=O)cc1 [Compound 99, 4-oxo-N-(4-pentylphenyl)-1H-quinoline-3-carboxamide]
< 10 | ++ (between 25% to 100%) | Cc1ccc(C(F)(F)F)cc1NC(=O)c1c[nH]c2ccccc2c1=O [Compound 577, N-[2-methyl-5-(trifluoromethyl)phenyl]-4-oxo-1H-quinoline-3-carboxamide]
25 to 60 | + (<25%) | O=C(Nc1ccc2[nH]nnc2c1)c1c[nH]c2ccccc2c1=O [Compound 256, N-(1H-benzotriazol-5-yl)-4-oxo-1H-quinoline-3-carboxamide]
< 10 | ++ (between 25% to 100%) | CC(C)(C)c1c[nH]c2cc(NC(=O)c3c[nH]c4ccc(F)cc4c3=O)ccc12 [Compound 554, 6-fluoro-4-oxo-N-(3-tert-butyl-1H-indol-6-yl)-1H-quinoline-3-carboxamide]
< 10 | ++ (between 25% to 100%) | O=C(Nc1ccc(C2CCCCC2)c(O)c1)c1c[nH]c2ccc(F)cc2c1=O [Compound 651, N-(4-cyclohexyl-3-hydroxy-phenyl)-6-fluoro-4-oxo-1H-quinoline-3-carboxamide]
< 10 | ++ (between 25% to 100%) | CC(C)(C)c1cccc(NC(=O)c2c[nH]c3ccc(F)cc3c2=O)c1 [Compound 664, 6-fluoro-4-oxo-N-(3-tert-butylphenyl)-1H-quinoline-3-carboxamide]
< 10 | ++ (between 25% to 100%) | CC(C)c1ccc(NC(=O)c2c[nH]c3ccccc3c2=O)cc1O [Compound 575, N-(3-hydroxy-4-isopropyl-phenyl)-4-oxo-1H-quinoline-3-carboxamide]
25 to 60 | + (<25%) | O=C(Nc1ccc2[nH]c(=O)oc2c1)c1c[nH]c2ccccc2c1=O [Compound 152, 4-oxo-N-(2-oxo-3H-benzooxazol-6-yl)-1H-quinoline-3-carboxamide]
< 10 | ++ (between 25% to 100%) | Cc1ccc(C)n1-c1ccccc1NC(=O)c1c[nH]c2ccccc2c1=O [Compound 297, N-[2-(2,5-dimethyl-1H-pyrrol-1-yl)phenyl]-4-oxo-1H-quinoline-3-carboxamide]
< 10 | ++ (between 25% to 100%) | O=C(Nc1cc(C(=O)O)c2cc[nH]c2c1)c1c[nH]c2ccccc2c1=O [Compound 711, 6-[(4-oxo-1H-quinolin-3-yl)carbonylamino]-1H-indole-4-carboxylic acid]
 | ++ (between 25% to 100%) | CCOC(=O)c1cc(NC(=O)c2c[nH]c3ccccc3c2=O)cc2[nH]ccc12 [Compound 145, 6-[(4-oxo-1H-quinolin-3-yl)carbonylamino]-1H-indole-4-carboxylic acid ethyl ester]
25 to 60 | + (<25%) | NS(=O)(=O)c1ccc(NC(=O)c2c[nH]c3ccccc3c2=O)cc1 [Compound 165, 4-oxo-N-(4-sulfamoylphenyl)-1H-quinoline-3-carboxamide]
< 10 | ++ (between 25% to 100%) | CC1(C)CCCN(c2ccc(NC(=O)c3c[nH]c4ccccc4c3=O)c(C(F)(F)F)c2)C1 [Compound 612, N-[4-(3,3-dimethyl-1-piperidyl)-2-(trifluoromethyl)phenyl]-4-oxo-1H-quinoline-3-carboxamide]
< 10 | ++ (between 25% to 100%) | O=C(Nc1ccccc1-c1cc(Cl)cc(Cl)c1)c1c[nH]c2ccccc2c1=O [Compound 367, N-[2-(3,5-dichlorophenyl)phenyl]-4-oxo-1H-quinoline-3-carboxamide]
25 to 60 | + (<25%) | CCC(=O)Nc1cccc(NC(=O)c2c[nH]c3ccccc3c2=O)c1 [Compound 81, 4-oxo-N-(3-propionylaminophenyl)-1H-quinoline-3-carboxamide]
10 to 25 | ++ (between 25% to 100%) | O=C(Nc1ccc2c(c1)NCC21CC1)c1c[nH]c2ccccc2c1=O [Compound 22, 4-Oxo-1,4-dihydro-quinoline-3-carboxylic acid N-(1′,2′-dihydrospiro[cyclopropane-1,3′-[3H]indol]-6′-yl)-amide]
